Experiments:
Jurkat [1] = assay: cells; conditions: Homo sapiens, 48 h
Jurkat [2] = assay: cells; conditions: Homo sapiens, 24 h
[3] = target: T1, Eukaryotic translation initiation factor 2-alpha kinase 3 (Homo sapiens, UniProt Q9NZJ5)
T1 sequence (Q9NZJ5 whole entry): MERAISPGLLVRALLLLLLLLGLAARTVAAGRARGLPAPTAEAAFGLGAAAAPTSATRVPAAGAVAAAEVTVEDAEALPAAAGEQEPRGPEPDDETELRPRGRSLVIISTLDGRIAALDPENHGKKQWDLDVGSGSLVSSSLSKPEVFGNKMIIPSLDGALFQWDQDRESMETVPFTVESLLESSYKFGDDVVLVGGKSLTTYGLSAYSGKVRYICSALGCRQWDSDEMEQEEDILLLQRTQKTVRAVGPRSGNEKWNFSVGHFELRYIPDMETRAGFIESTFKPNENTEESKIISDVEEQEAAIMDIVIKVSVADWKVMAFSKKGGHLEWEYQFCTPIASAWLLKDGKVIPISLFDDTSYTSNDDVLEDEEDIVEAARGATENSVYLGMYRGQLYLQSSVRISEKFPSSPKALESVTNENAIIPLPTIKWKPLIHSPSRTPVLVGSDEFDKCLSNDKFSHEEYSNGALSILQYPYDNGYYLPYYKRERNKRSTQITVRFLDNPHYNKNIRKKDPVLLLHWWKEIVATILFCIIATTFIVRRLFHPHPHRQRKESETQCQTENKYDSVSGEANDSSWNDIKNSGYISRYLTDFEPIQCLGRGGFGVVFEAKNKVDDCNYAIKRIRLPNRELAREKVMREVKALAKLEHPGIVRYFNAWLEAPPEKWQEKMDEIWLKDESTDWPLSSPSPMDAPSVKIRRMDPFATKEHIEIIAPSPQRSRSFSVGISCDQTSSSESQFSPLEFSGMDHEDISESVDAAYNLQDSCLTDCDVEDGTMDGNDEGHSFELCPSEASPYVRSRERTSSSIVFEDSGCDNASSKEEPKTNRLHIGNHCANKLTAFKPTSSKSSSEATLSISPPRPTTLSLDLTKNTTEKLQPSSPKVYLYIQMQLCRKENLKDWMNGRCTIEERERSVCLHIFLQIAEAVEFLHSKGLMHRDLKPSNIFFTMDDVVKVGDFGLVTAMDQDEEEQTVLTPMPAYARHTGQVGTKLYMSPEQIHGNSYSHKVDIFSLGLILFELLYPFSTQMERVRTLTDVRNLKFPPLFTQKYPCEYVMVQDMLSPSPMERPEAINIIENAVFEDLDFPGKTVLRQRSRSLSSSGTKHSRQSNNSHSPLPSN

[4] = target: T2, Receptor-interacting serine/threonine-protein kinase 1 (Homo sapiens, UniProt Q13546)
T2 sequence (Q13546 whole entry): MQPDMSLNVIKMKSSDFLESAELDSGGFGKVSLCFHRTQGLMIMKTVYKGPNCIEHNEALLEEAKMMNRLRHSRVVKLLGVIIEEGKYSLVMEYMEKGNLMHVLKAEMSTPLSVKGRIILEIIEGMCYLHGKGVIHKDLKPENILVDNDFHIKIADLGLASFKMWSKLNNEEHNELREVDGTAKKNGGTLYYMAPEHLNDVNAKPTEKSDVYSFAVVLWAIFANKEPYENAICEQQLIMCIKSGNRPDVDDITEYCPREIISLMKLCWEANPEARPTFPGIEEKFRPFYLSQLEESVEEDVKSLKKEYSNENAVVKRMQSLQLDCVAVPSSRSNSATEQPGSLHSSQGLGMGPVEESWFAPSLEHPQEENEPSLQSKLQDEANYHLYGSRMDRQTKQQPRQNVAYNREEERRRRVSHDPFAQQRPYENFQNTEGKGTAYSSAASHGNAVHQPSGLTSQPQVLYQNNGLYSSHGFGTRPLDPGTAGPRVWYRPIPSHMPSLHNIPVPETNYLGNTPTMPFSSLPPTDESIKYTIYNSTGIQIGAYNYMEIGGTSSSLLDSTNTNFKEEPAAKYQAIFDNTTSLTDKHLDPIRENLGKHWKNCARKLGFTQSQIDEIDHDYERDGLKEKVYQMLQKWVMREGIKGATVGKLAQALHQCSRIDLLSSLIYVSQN

HT-29 [5] = assay: cells; conditions: Homo sapiens, HT-29, 48 h
MEF = assay: cells; conditions: Mus musculus, 48 h
in vitro [6] = conditions: mouse, L929 cells
U-937 [7] = assay: cells; conditions: Homo sapiens, U-937, 48 h
clinical = conditions: human
[8] = target: T2, Receptor-interacting serine/threonine-protein kinase 1; remark: listed apart in the source
cells = conditions: Homo sapiens, HT-29, 1 h
[9] = target: T2, Receptor-interacting serine/threonine-protein kinase 1; assay: biochemical
[10] = target: T2, Receptor-interacting serine/threonine-protein kinase 1; remark: listed apart in the source
L929 = assay: cells; conditions: Mus musculus, L929, 24 h
in vitro [11] = conditions: mouse, liver microsomes
HT-29 [12] = assay: cells; conditions: Homo sapiens, HT-29, 24 h
[13] = target: T2, Receptor-interacting serine/threonine-protein kinase 1; remark: listed apart in the source
Aurora kinase A = target: T3, Aurora kinase A (Homo sapiens, UniProt O14965)
T3 sequence (O14965 whole entry): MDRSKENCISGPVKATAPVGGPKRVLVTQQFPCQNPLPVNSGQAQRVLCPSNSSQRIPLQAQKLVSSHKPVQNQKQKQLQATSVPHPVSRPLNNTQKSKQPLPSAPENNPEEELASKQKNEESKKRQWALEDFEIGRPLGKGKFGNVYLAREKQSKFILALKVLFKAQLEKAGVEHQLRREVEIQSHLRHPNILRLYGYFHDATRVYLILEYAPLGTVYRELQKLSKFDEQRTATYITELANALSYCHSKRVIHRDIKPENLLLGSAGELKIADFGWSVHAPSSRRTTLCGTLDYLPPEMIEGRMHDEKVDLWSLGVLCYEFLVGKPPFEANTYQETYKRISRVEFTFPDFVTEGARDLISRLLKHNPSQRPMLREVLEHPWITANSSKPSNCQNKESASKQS

HT-29 [14] = assay: cells; conditions: Homo sapiens, HT-29, 24 h; remark: listed apart in the source
[15] = target: T2, Receptor-interacting serine/threonine-protein kinase 1; remark: listed apart in the source
[16] = target: T1, Eukaryotic translation initiation factor 2-alpha kinase 3; remark: listed apart in the source
[17] = target: T4, Receptor-interacting serine/threonine-protein kinase 3 (Homo sapiens, UniProt Q9Y572)
T4 sequence (Q9Y572 whole entry): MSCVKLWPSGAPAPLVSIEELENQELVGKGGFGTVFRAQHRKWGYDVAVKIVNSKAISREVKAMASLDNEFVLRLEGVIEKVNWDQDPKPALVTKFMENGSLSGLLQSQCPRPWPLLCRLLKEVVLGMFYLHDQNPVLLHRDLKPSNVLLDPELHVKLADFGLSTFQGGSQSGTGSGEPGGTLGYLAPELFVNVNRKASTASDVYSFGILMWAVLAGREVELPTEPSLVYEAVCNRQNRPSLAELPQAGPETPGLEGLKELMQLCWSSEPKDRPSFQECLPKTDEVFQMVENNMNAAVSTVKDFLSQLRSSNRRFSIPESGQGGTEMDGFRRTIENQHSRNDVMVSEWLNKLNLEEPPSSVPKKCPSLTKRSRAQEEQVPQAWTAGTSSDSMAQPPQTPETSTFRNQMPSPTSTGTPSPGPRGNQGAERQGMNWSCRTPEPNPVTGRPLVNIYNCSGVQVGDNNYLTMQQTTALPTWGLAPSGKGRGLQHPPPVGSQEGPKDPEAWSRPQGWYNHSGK

Jurkat [18] = assay: cells; conditions: Homo sapiens
U-937 [19] = assay: cells; conditions: Homo sapiens
[20] = target: T2, Receptor-interacting serine/threonine-protein kinase 1; remark: listed apart in the source
TOV21G = assay: cells; conditions: Homo sapiens
[21] = target: Receptor-interacting serine/threonine-protein kinase 2 (Homo sapiens, UniProt O43353)
Chain of Receptor-interacting serine/threonine-protein kinase 2 (O43353 whole entry): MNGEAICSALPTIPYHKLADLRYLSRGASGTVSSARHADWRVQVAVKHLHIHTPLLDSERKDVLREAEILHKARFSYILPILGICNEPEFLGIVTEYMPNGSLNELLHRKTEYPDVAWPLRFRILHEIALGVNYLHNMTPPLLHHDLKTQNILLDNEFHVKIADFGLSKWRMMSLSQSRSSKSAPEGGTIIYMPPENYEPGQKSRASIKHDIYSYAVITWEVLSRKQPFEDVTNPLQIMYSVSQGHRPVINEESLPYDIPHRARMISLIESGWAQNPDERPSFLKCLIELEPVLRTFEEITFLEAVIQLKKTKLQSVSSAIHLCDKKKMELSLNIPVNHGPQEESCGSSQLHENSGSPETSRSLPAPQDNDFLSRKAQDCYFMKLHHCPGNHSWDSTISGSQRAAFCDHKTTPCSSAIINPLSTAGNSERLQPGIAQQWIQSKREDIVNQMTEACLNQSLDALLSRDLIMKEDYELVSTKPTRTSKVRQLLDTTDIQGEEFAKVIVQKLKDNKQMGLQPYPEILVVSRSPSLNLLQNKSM

HT-29 [22] = assay: cells; conditions: Homo sapiens
HT-29 [23] = assay: cells; conditions: Homo sapiens; remark: listed apart in the source
Jurkat [24] = assay: Antiproliferative activity against human Jurkat cells assessed as reduction in cell viability by MTT assay; assay type: functional, cell-based
[25] = target: Indoleamine 2,3-dioxygenase 1 (Homo sapiens, UniProt P14902); assay: Inhibition of IDO (unknown origin)
Chain of Indoleamine 2,3-dioxygenase 1 (P14902 whole entry): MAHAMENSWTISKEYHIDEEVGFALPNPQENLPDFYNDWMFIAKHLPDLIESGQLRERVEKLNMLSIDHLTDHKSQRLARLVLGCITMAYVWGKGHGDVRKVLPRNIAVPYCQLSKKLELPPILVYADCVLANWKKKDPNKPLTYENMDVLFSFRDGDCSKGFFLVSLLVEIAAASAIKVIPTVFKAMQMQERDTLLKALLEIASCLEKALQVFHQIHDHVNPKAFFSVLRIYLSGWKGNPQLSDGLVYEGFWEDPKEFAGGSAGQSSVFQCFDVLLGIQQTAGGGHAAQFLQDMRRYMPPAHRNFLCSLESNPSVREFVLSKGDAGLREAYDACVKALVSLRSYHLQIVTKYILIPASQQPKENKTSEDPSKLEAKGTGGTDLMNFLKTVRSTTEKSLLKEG

HT-29 [26] = assay: cells; conditions: Homo sapiens, HT-29, 1 h
[27] = target: T4, Receptor-interacting serine/threonine-protein kinase 3; remark: listed apart in the source
[28] = target: T5, Regulator of chromosome condensation (Homo sapiens, UniProt P18754)
T5 sequence (P18754 whole entry): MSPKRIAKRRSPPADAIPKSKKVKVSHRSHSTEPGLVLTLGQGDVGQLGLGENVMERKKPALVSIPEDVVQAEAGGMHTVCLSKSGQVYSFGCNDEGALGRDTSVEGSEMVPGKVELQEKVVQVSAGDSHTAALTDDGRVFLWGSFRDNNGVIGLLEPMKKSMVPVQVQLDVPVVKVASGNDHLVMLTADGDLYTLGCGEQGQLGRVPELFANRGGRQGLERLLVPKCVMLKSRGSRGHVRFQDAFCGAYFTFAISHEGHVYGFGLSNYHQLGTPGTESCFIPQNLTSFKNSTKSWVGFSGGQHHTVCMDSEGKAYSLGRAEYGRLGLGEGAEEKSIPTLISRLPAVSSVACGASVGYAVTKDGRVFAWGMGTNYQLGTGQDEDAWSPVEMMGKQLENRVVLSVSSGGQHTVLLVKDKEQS

[29] = target: T2, Receptor-interacting serine/threonine-protein kinase 1; remark: listed apart in the source

Compound: Cc1ccc(C2CC(=O)NC(SCC(=O)Nc3nccs3)=C2C#N)cc1 (stereo not drawn)
- IC50 (Jurkat [1]): 740 nM

Compound: CN1C(=O)NC(Cc2c[nH]c3ccccc23)C1=O (stereo not drawn)
- IC50 (Jurkat [2]): 210 nM

Compound: Cc1cccc(CC(=O)N2CCc3cc(-c4cn(C)c5ncnc(N)c45)ccc32)n1
- IC50 [3]: 9.7 nM
- IC50 [4]: 69.1 nM

Compound: Cn1cc(-c2ccc3c(c2)CCN3C(=O)Cc2cccc(C(F)(F)F)n2)c2c(N)ncnc21
- IC50 [3]: 3.8 nM
- IC50 [4]: 18.2 nM

Compound: CC(=O)Nc1nc2ccc(-c3cnc(Cl)c(NC(=O)Cc4ccccc4)c3)cc2s1
- EC50 (HT-29 [5]): 1200 nM
- IC50 [4]: 18.2 nM
- EC50 (MEF): 950 nM
- EC50 at 48 h (in vitro [6]): 760 nM
- EC50 (U-937 [7]): 1330 nM

Compound: CN1C(=O)N[C@@H](Cc2c[nH]c3c(Cl)cccc23)C1=O
- half-life (clinical): 60 min

Compound: CN1C(=O)C(Cc2c[nH]c3c(Cl)cccc23)NC1=S (stereo not drawn)
- IC50 (Jurkat [2]): 180 nM

Compound: Cc1cc(Nc2cc(N3CCN(C)CC3)nc(Nc3ccc(NC(=O)C4CC4)cc3)n2)n[nH]1
- IC50 [8]: 170 nM

Compound: CCCCNc1nc2ccc([N+](=O)[O-])cc2[nH]1
- EC50 (cells): 1.7 µM

Compound: O=C(c1ccc(-c2cc3cccnc3[nH]2)cc1)N1CCOCC1
- IC50 [9]: 88 µM

Compound: O=C(Nc1cn2cc(-c3cnc4c(c3)N(C(=O)OC3CCOCC3)CC4)ccc2n1)C1CC1
- Kd [10]: 8.7 nM

Compound: O=C(NC1CCOCC1)c1nsc2ncc(-c3ccc4nc(NC(=O)C5CC5)sc4c3)cc12
- Kd [10]: 13 nM
- EC50 (L929): 1.9 nM
- half-life (in vitro [11]): > 90 min
- EC50 (HT-29 [12]): 5 nM
- IC50 [13]: 5.8 nM

Compound: Cc1cc(Nc2cc(N3CCNCC3)nc(Nc3ccc(NC(=O)C4CC4)cc3)n2)n[nH]1
- IC50 [8]: 160 nM
- IC50 (Aurora kinase A): 430 nM

Compound: O=[N+]([O-])c1ccn(Cc2ccc(Cl)cc2Cl)n1
- EC50 (HT-29 [14]): 1050 nM

Compound: Cc1nnsc1C(=O)N[C@H](C)c1c(F)cccc1Cl
- half-life (clinical): 32.5 min
- EC50 (Jurkat [2]): 400 nM

Compound: CC(=O)NC1=NC2C=CC(c3cnc4ccn(C(=O)OC5CCCCC5)c4c3)=CC2S1 (stereo not drawn)
- EC50 (L929): 26 nM
- EC50 (HT-29 [12]): 58 nM

Compound: Cn1cc(-c2ccc3c(c2)CCN3C(=O)Cc2ccc(C(F)(F)F)cn2)c2c(N)ncnc21
- IC50 [15]: 2.9 nM
- IC50 [16]: > 5 µM

Compound: CN1C(=O)[C@@H](Cc2c[nH]c3c(Cl)c(F)ccc23)N(C=O)C1=O
- IC50 [17]: 0.366 µM
- IC50 (Jurkat [18]): 185 nM

Compound: O=C(NCCc1ccccc1Cl)c1cn(-c2ccccc2)nn1
- IC50 [13]: 250 nM

Compound: C[C@@H](Oc1cc(-c2cnn(C3CCNCC3)c2)cnc1N)c1c(Cl)ccc(F)c1Cl [CRIZOTINIB]
- IC50 (Jurkat [18]): 2380 nM

Compound: COc1cc(CCc2cc(NC(=O)c3ccc(N4C[C@@H](C)N[C@@H](C)C4)cc3)n[nH]2)cc(OC)c1 [FEXAGRATINIB]
- EC50 (U-937 [19]): 31 nM
- IC50 [20]: 12 nM
- EC50 (TOV21G): 52 nM
- IC50 [21]: 259 nM
- IC50 [17]: 10 µM
- EC50 (HT-29 [22]): 19 nM
- EC50 (HT-29 [23]): 19 nM

Compound: Cc1ccc(F)c(NC(=O)Nc2ccc(-c3cccc4[nH]nc(N)c34)cc2)c1 [LINIFANIB]
- IC50 [13]: 95 nM

Compound: CN1C(=O)C(Cc2c[nH]c3ccccc23)NC1=S (stereo not drawn) [NECROSTATIN]
- EC50 (Jurkat [24]): 540 nM
- IC50 [25]: 39.1 µM

Compound: Cc1ccc(Nc2nccc(N(C)c3ccc4c(C)n(C)nc4c3)n2)cc1S(N)(=O)=O [PAZOPANIB]
- EC50 (Jurkat [18]): 254 nM

Compound: COc1cc(/C=C/C(=O)N2CCC=CC2=O)cc(OC)c1OC [PIPLARTINE]
- EC50 (HT-29 [26]): 540 nM
- EC50 (cells): 6.41 µM

Compound: Cc1ccc(C(=O)Nc2ccc(CN3CCN(C)CC3)c(C(F)(F)F)c2)cc1C#Cc1cnc2cccnn12 [PONATINIB]
- EC50 (HT-29 [23]): 50 nM
- EC50 (Jurkat [18]): 89 nM

Compound: CNC(=O)c1cc(Oc2ccc(NC(=O)Nc3cc(C(C)(C)C)nn3-c3ccc4ncccc4c3)c(F)c2)ccn1 [REBASTINIB]
- IC50 [27]: 18.6 nM
- EC50 [28]: 18.7 nM
- IC50 [29]: 6.49 nM
